How the values were obtained:
[1] = tested on: Daudi cells; experiment: ADCC assay; type: cell-based
Description: For ADCC assay, Daudi target cell concentration was adjusted to 12.5×10^4 cells/mL with ADCC medium. 80 μL of cell suspension (1×10^4 viable cells) was added to each well of a round-bottom 96-well plate. Twenty μL of antibody, serially diluted in ADCC medium, was dispensed to each well in triplicate. […] The plate was incubated at 22-25° C. for 30 minutes. PBMC concentration was adjusted with ADCC medium so that by adding […] of PBMC cells to the target cells, the Effector: Target cell ratio were 25:1 and 50:1, respectively. The plate was centrifuged at 250×g for 4 minutes and then incubated at 37° C. 45 minutes prior to harvesting the supernatant, 20 μL of lysis solution from the CytoTox 96 kit (Promega) was added to maximum lysis control wells. After a 5 hour incubation, the plate was centrifuged at 250×g for 4 minutes. 50 μL of supernatant from each well was transfer to a clean flat-bottom 96 well assay plate. 50 μL of substrate from CytoTox 96 kit (Promega) was added to each well and mixed for 30 seconds. The plate was incubated at room temperature for 30 minutes before 50 μL of stop solution was added to each well and mixed for 30 seconds. The absorbance was read at 490 nm. For data analysis: the % lysis is calculated using GraphPad Prism 5.0 to generate the IC50, as follows: […]

[2] = tested on: Daudi cells; experiment: CDC assay; type: cell-based; details: 10% complement
Description: For CDC assay Daudi target cells were harvested and cell concentration was adjusted to 80×10^4 cells/mL with cell culture medium. To a flat-bottom 96-well white plate, 25 μL/well of cells was added. Then, 12.5 μL/well of P1C4, Rituximab, Anti-HEL-hIgG1, and Anti-HEL-hIgG2, serially diluted in ADCC medium, were added to each well in duplicate. […] The plates were incubated in the hood for 15 minutes. Human complement, diluted with ADCC medium, was added to the plates containing cells at 12.5 μL/well to reach a final concentration of 10%. For the maximum lysis wells, 5 μL of lysis solution was added. The final volume of all the wells was adjusted to 50 μL with ADCC medium. The plates were incubated at 37° C. for 2 hours before 50 μL/well of CTG solution was added to the cells. The plates were shaken on a microplate shaker for 2 minutes at a speed of 200 and then incubated at room temperature for 10 minutes. The luminescence signal was red with Envision. For data analysis, % cytotoxicity and IC50 was calculated using GraphPad Prism 5.0 as follows: […]

## Rituximab: positive control antibody in ADCC and CDC assays
[1]; 25:1 E/T ratio
  ADCC IC50: 0.92 ng/mL
[1]; 50:1 E/T ratio
  ADCC IC50: 1.19 ng/mL
[2]
  CDC IC50: 399 ng/mL
